Reference: article PMC9841589, “Identification of 2-Aminoacyl-1,3,4-thiadiazoles as Prostaglandin E2 and Leukotriene Biosynthesis Inhibitors” (ACS Medicinal Chemistry Letters, 2022)

What was measured:
[1] = biological target: T1, Human recombinant 5-LO (Homo sapiens, UniProt P09917); assay: Cell-free 5-LO activity assay; format: biochemical; conditions: percentage of uninhibited control (100%), n = 3; n.i.: no inhibitory activity observed
T1 construct: made in house; host or cells: E. coli BL21 transformed with pT3-5-LO plasmid
T1 sequence (P09917 1-674): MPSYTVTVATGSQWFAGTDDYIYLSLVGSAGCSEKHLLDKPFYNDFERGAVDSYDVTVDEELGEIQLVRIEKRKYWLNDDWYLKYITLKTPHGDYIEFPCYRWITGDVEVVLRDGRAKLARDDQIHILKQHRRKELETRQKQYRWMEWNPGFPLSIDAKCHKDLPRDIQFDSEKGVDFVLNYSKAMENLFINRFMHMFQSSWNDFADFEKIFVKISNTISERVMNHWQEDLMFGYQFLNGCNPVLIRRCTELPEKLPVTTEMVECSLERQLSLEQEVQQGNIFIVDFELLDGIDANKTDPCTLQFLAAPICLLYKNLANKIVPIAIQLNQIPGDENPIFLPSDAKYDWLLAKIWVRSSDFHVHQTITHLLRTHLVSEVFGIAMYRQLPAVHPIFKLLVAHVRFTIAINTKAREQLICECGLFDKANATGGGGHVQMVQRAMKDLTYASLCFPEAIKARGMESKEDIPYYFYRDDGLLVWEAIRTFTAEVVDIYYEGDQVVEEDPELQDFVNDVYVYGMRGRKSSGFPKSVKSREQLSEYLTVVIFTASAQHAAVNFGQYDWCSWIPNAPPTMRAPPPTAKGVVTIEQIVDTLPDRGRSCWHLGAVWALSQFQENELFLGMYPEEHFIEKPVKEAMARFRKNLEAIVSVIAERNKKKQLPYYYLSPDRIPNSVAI
Description: mM glutathione, and 250 mM sucrose) and the protein concentration was defined. Potassium phosphate buffer (0.1 M, pH = 7.4) plus glutathione (2.5 mM) was added to dilute microsomes, which were then seeded in a 96-well plate. Test compounds 1-9 (10 µM) or DMSO (1%) were added and preincubated for 15 min on ice. MK886 (10 µM) and MD-52 (1 µM) were used as reference drugs.
The reactions started by adding 20 µM of PGH2, and 1 min later, 100 µl of a solution containing FeCl3 (40 mM), citric acid (80 mM), and 11β-PGE 2 (10 µM) were added for stopping the conversion of PGH2. After the extraction of PGE2 and 11β-PGE 2 (internal stardard) by solid-phase extraction, the quantity of product formation (PGE2) was determined by RP-HPLC.114
Cell-free 5-LO activity assay
Human recombinant 5-LO was expressed in E.coli BL21 transformed with pT3-5-LO plasmid at 30 °C overnight 15.2 A lysis buffer (50 mM triethanolamine, pH = 8.0, 5 mM EDTA, 1 mM phenylmethanesulfonyl fluoride, 60 µg/mL soybean trypsin inhibitor, 2 mM dithiothreitol and lysozyme) was added. […] Finally, a solid-phase extraction then was performed using C18 RP-columns (100 mg, UCT, Bristol, PA, USA) and RP-HPLC was used to quantify 5-LOX products.3 16 The 5-LO inhibitor zileuton (3 µM) was used as positive control. […]

[2] = test system: zymosan-induced peritonitis; assay: Zymosan-induced peritonitis in mice; format: in vivo, mouse
Description: Figure 5 Effect of compound 3 in zymosan-induced peritonitis in mice. Mice were randomly divided into different experimental groups: control group (Ctrl), model group (zymosan + vehicle compound 3), zymosan + compound 3 (i.p. injection 30 min after i.p. injection of zymosan) group, and zymosan + dexamethasone (i.p. injection 30 min after i.p. injection of zymosan) group. At (A) 4 and (B) 24 h after injection, peritoneal exudate from each mouse was recovered, and the total cell number was evaluated. Results are expressed as mean ± SD. For statistical analysis see SI.
Figure 6 Analysis of cytokine levels collected in the peritoneal exudate of mice from different experimental groups: (A, B) IL-1β, (C, D) IL-6, (E, F) PGE2, and (G, H) IL-10. Results (normalized to exudate levels) are expressed as mean ± SD. For statistical analysis see SI.
Induction of peritonitis in mice and Enzyme-Linked Immunosorbent Assay (ELISA)
To examine the anti-inflammatory action of compound 3, we next evaluated the biological activity of
compound 3 in a mouse model of zymosan-induced peritonitis, as as previously described. 13,14 26, 27
To this aim, mice were randomly divided into different experimental groups: control group (Ctrl),
model group (zymosan + vehicle compound 3), zymosan + compound 3 (0.1, 1, and 10 mg/kg), and
zymosan + dexamethasone (3 mg/kg) group. Animals received the selected compound or
dexamethasone intraperitoneally (i.p.) 30 min after i.p. injection of zymosan (500 mg/kg)26, 27. Ctrl
and model groups received an equal volume of vehicle (PBS or DMSO/saline 1:3, respectively).
Peritoneal exudates were collected at selected time points (4 and 24 h) by washing the cavity with 2
mL of PBS. Then cell number of lavage fluids was determined by TC10 automated cell counter (Bio-
Rad, Milan, Italy) using disposable slides. The remaining lavage fluids were centrifuged at 3000 rpm
for 20 min at 4 °C, and supernatants were frozen at −80 °C for further ELISA analysis according to
the manufacturer instructions (eBioscience Co., San Diego, CA, USA)10 23 of IL-1β, IL-6, PGE 2 and
IL-10 following the procedure previously described15-17 28-30. Dexamethasone and zymosan A were
purchased from Sigma-Aldrich (Milan, Italy). DMSO was purchased from Merck (Italy). Unless
otherwise stated, all the other reagents were purchased from Carlo Erba (Milan, Italy).
The data and statistical analysis in this study comply with the international recommendations on
experimental design and analysis in preclinical pharmacology18-2031-33. The results obtained were
expressed as the mean ± S.D. or as mean ± S.E.M., as reported in detail in the figure legends. IC 50
values were calculated by nonlinear regression using GraphPad Prism Version 8.0 software (San
Diego, CA) one site binding competition. Statistical evaluation of the data was performed by one-

[3] = 10 mg/kg i.p., 4 h (P ≤ 0.05) and 24 h (P ≤ 0.01)

## O=C(Nc1nnc(-c2ccc(-c3cccc(O)c3)cc2)s1)c1ccccc1Br [compound 3]
[1]
  5-LO residual activity (%): n.i. (125) %
[2]; 1 mg/kg i.p., 4 and 24 h, P ≤ 0.05
  leucocyte recruitment (total cell number in peritoneal exudate): remarkable effect
[2]; 10 mg/kg i.p. 30 min after zymosan, 4 h, P ≤ 0.05
  leucocyte recruitment (total cell number in peritoneal exudate): reduced
[2]; 10 mg/kg i.p. 30 min after zymosan, 24 h, P ≤ 0.01
  leucocyte recruitment (total cell number in peritoneal exudate): reduced
[2]; 10 mg/kg i.p., 4 and 24 h
  IL-10 level in peritoneal exudate: modulated only at 24 h
[2]; 10 mg/kg i.p., 4 and 24 h (P ≤ 0.01)
  PGE2 level in peritoneal exudate: significantly reduced
[2]; [3]
  IL-1β level in peritoneal exudate: significantly reduced
  IL-6 level in peritoneal exudate: significantly reduced

## Nc1ccccc1-c1ccc(-c2nnc(NC(=O)c3c(Cl)ccnc3Cl)s2)cc1 [compound 9]
[1]
  5-LO residual activity (%): n.i. (75.9) %
